In brackets after ≈: the same amount, converted by molar mass.
Key:
Set-up in all cases: agar dilution MIC, growth inhibition of clinical Burkholderia isolates
[1] = test system: T1, B. cenocepacia AU19530; test: microbe, parasite or virus in culture; details: Burkholderia cenocepacia, AU19530
T1 construct: AU19530
Outline: (§1)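 MICs by agar dilution against Bcc and B. gladioli clinical isolates, interpreted with CLSI breakpoints where available; K. pneumoniae ATCC 700603 (SHV-18) and ATCC BAA-1705 (KPC) served as quality controls.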

[2] = test system: T2, B. multivorans AU24277; test: microbe, parasite or virus in culture; details: Burkholderia multivorans, AU24277
T2 construct: AU24277
Outline: as §1

[3] = test system: T3, Burkholderia cepacia complex Bcc Indeterminate AU14962; test: microbe, parasite or virus in culture; details: Burkholderia cepacia
T3 construct: AU14962
Outline: as §1

[4] = test system: T4, B. cenocepacia AU24362; test: microbe, parasite or virus in culture; details: Burkholderia cenocepacia, AU24362
T4 construct: AU24362
Outline: as §1

[5] = test system: T5, B. cenocepacia AU20998; test: microbe, parasite or virus in culture; details: Burkholderia cenocepacia, AU20998
T5 construct: AU20998
Outline: as §1

[6] = test system: T6, B. cepacia AU15677; test: microbe, parasite or virus in culture; details: Burkholderia cepacia, AU15677
T6 construct: AU15677
Outline: as §1

[7] = test system: T7, B. cenocepacia AU0133; test: microbe, parasite or virus in culture; details: Burkholderia cenocepacia, AU0133
T7 construct: AU0133
Outline: as §1

[8] = test system: T8, Burkholderia cepacia complex Bcc Indeterminate AU19821; test: microbe, parasite or virus in culture; details: Burkholderia cepacia
T8 construct: AU19821
Outline: as §1

[9] = test system: T9, B. cepacia AU23707; test: microbe, parasite or virus in culture; details: Burkholderia cepacia, AU23707
T9 construct: AU23707
Outline: as §1

[10] = test system: T10, B. cenocepacia AU9215; test: microbe, parasite or virus in culture; details: Burkholderia cenocepacia, AU9215
T10 construct: AU9215
Outline: as §1

[11] = test system: T11, B. multivorans AU22436; test: microbe, parasite or virus in culture; details: Burkholderia multivorans, AU22436
T11 construct: AU22436
Outline: as §1

[12] = test system: T12, B. gladioli AU29541; test: organism not typed
T12 construct: AU29541
Outline: as §1

[13] = test system: T13, B. multivorans AU27706; test: microbe, parasite or virus in culture; details: Burkholderia multivorans, AU27706
T13 construct: AU27706
Outline: as §1

[14] = test system: T14, B. cenocepacia AU3663; test: microbe, parasite or virus in culture; details: Burkholderia cenocepacia, AU3663
T14 construct: AU3663
Outline: as §1

[15] = test system: T15, B. vietnamiensis AU3578; test: microbe, parasite or virus in culture; details: Burkholderia vietnamiensis, AU3578
T15 construct: AU3578
Outline: as §1

[16] = test system: T16, B. stabilis AU9035; test: microbe, parasite or virus in culture; details: Burkholderia stabilis, AU9035
T16 construct: AU9035
Outline: as §1

[17] = test system: T17, B. cepacia AU16396; test: microbe, parasite or virus in culture; details: Burkholderia cepacia, AU16396
T17 construct: AU16396
Outline: as §1

[18] = test system: T18, B. dolosa AU29021; test: microbe, parasite or virus in culture; details: Burkholderia dolosa, AU29021
T18 construct: AU29021
Outline: as §1

[19] = test system: T19, B. multivorans AU23919; test: microbe, parasite or virus in culture; details: Burkholderia multivorans, AU23919
T19 construct: AU23919
Outline: as §1

[20] = test system: T20, B. contaminans AU21811; test: organism not typed
T20 construct: AU21811
Outline: as §1

[21] = test system: T21, B. cenocepacia AU12571; test: microbe, parasite or virus in culture; details: Burkholderia cenocepacia, AU12571
T21 construct: AU12571
Outline: as §1

[22] = test system: T22, Burkholderia cepacia complex Bcc Indeterminate AU12560; test: microbe, parasite or virus in culture; details: Burkholderia cepacia
T22 construct: AU12560
Outline: as §1

Compound | MIC [1] | MIC [2] | MIC [3] | MIC [4] | MIC [5] | MIC [6] | MIC [7] | MIC [8] | MIC [9] | MIC [10] | MIC [11] | MIC [12] | MIC [13] | MIC [14] | MIC [15] | MIC [16] | MIC [17] | MIC [18] | MIC [19] | MIC [20] | also measured
CO/N=C(\C(=O)N[C@@H]1C(=O)N2C(C(=O)[O-])=C(C[N+]3(C)CCCC3)CS[C@H]12)c1csc(N)n1 [cefepime] | > 32 µg/mL | > 32 µg/mL | > 32 µg/mL | > 32 µg/mL | > 32 µg/mL | 32 µg/mL (≈ 66.6 µM) | 16 µg/mL (≈ 33.3 µM) | > 32 µg/mL | 32 µg/mL (≈ 66.6 µM) | > 32 µg/mL | 8 µg/mL (≈ 16.6 µM) | 32 µg/mL (≈ 66.6 µM) | 1 µg/mL (≈ 2.08 µM) | 32 µg/mL (≈ 66.6 µM) | > 32 µg/mL | 32 µg/mL (≈ 66.6 µM) | 32 µg/mL (≈ 66.6 µM) | > 32 µg/mL | 32 µg/mL (≈ 66.6 µM) | > 32 µg/mL | MIC [21]: 16 µg/mL (≈ 33.3 µM); MIC [22]: 32 µg/mL (≈ 66.6 µM)
C[C@H]1COc2c(N3CCN(C)CC3)c(F)cc3c(=O)c(C(=O)O)cn1c23 [levofloxacin] | 16 µg/mL (≈ 44.3 µM) | 32 µg/mL (≈ 88.6 µM) | 2 µg/mL (≈ 5.53 µM) | 8 µg/mL (≈ 22.1 µM) | > 32 µg/mL | 4 µg/mL (≈ 11.1 µM) | 4 µg/mL (≈ 11.1 µM) | 32 µg/mL (≈ 88.6 µM) | 32 µg/mL (≈ 88.6 µM) | 32 µg/mL (≈ 88.6 µM) | > 32 µg/mL | 8 µg/mL (≈ 22.1 µM) | 1 µg/mL (≈ 2.77 µM) | 16 µg/mL (≈ 44.3 µM) | 8 µg/mL (≈ 22.1 µM) | 16 µg/mL (≈ 44.3 µM) | > 32 µg/mL | 4 µg/mL (≈ 11.1 µM) | 2 µg/mL (≈ 5.53 µM) | 8 µg/mL (≈ 22.1 µM) | MIC [21]: 8 µg/mL (≈ 22.1 µM); MIC [22]: 8 µg/mL (≈ 22.1 µM)
C[C@@H](O)[C@H]1C(=O)N2C(C(=O)O)=C(S[C@@H]3CN[C@H](C(=O)N(C)C)C3)[C@H](C)[C@H]12 [meropenem] | 8 µg/mL (≈ 20.9 µM) | 16 µg/mL (≈ 41.7 µM) | 8 µg/mL (≈ 20.9 µM) | 16 µg/mL (≈ 41.7 µM) | 8 µg/mL (≈ 20.9 µM) | 4 µg/mL (≈ 10.4 µM) | 4 µg/mL (≈ 10.4 µM) | 16 µg/mL (≈ 41.7 µM) | 8 µg/mL (≈ 20.9 µM) | 16 µg/mL (≈ 41.7 µM) | 8 µg/mL (≈ 20.9 µM) | 8 µg/mL (≈ 20.9 µM) | 0.5 µg/mL (≈ 1.3 µM) | 4 µg/mL (≈ 10.4 µM) | 4 µg/mL (≈ 10.4 µM) | 8 µg/mL (≈ 20.9 µM) | 8 µg/mL (≈ 20.9 µM) | 8 µg/mL (≈ 20.9 µM) | 4 µg/mL (≈ 10.4 µM) | 16 µg/mL (≈ 41.7 µM) | MIC [21]: 2 µg/mL (≈ 5.22 µM); MIC [22]: 4 µg/mL (≈ 10.4 µM)
